Results on three compounds are retold here after patent US20080206203A1, “Method for Inhibiting Tumor Metastasis” (Inflammation Research Center Company Ltd., priority 2004, published 2008).

In series [1] the test system is permeability of blood brain barrier and infiltration of white blood cells to cerebrospinal fluid caused by arachidonic acid. In words: arachidonic acid-induced central nervous system inflammation (CSF volume and WBC counts via subarachnoid cannula). It counts as in vivo, rat. The source says:
To investigate the role of leukotriene antagonists in the treatment of inflammation, a sensitive and quantitative method to measure inflammation for the central nervous system was developed. Important changes in the inflammatory process can be monitored, as both the permeability of blood brain barrier (BBB) and the infiltration of white blood cells (WBC) to cerebrospinal fluid (CSF) caused by arachidonic acid can be measured over time from the same experimental animal. In particular, the effect of the leukotriene C4 and D4 antagonist, pranlukast, was studied using this method. Changes in the inflammatory process of both the permeability of BBB and the infiltration of white blood cells (WBC) caused by administering arachidonic acid as a nociceptive stimulus were observed.
Male rats, approximately 350-400 g, were anesthetized with sodium pentobarbital at a dose of 50 mg/kg intraperitoneally (i.p.). Animals were then placed in a stereotaxic unit. Fur from the top of the head to neck was shaved. The study area was disinfected with 70% ethanol followed by a 10% providone-iodine solution. Skin and muscle over the cervical cord were dissected until cervical vertebrae were exposed. A hole was made using a 23 G3/4 needle passing through the dura via the cisterna magna. One end of a 2-3 mm PE10 cannula (0.011 “I.D., 0.007” thick, 0.024″ O.D., 6.5 cm long) was inserted into the subarachnoid space at the cervical cord so as to avoid damage to neuronal tissue (FIG. 3). The cannula was fixed with cyanoacrylic glue to the peripheral tissue. The other end of PE10 was used for administration of a nociceptive stimulus, such as arachidonic acid (AA; 3.25 μg/2 μl) and subsequently for collecting cerebrospinal fluid (CSF) every thirty minutes thereafter during the 11-hour experimental period. The cannula filled with CSF immediately after the cannulation.
Air was infused to inject AA to the subarachnoid space. The muscles and skin were closed with surgical staples. The rat was then removed from the stereotaxic unit and placed on a heat pad and continuously monitored.
In the interaction study, the leukotriene C4 and D4 antagonist, pranlukast, was administered (490 mg/kg, i.p.) thirty minutes before administration of arachidonic acid (AA). If the effects of the anesthesia appeared to be wearing off, an additional 0.05-0.1 ml pentobarbital (50 mg/ml, i.p.) dose was administered. If at any time during the experiment, the animal appeared to be in pain or distress, the study was immediately stopped and the animal was euthanized.
In the present study, the volume (μl) of cerebrospinal fluid (CSF) and white blood cell (WBC) counts in CSF was measured every thirty minutes for 11 hours from the same rat. One side of the cannula (PE10) was inserted into the subarachnoid space under pentobarbital anesthesia, avoiding neuronal damage (FIG. 3). If the brain tissue is damaged, the volume of CSF and WBC increases immediately without the administration of arachidonic acid. Since there are no WBC in the CSF in the normal rat, only rats that had no WBC in the CSF immediately after the cannulation were used. Another side of the cannula remained open and was used for the administration of nociceptive stimuli (arachidonic acid, LPS, dextran, etc.) and subsequently for collecting the CSF every thirty minutes during the experiment. The CSF volume was measured using a micropipette and WBC in the CSF were counted by means of a hemacytometer.

The conditions of series [2]: in vivo; cited from earlier work.

For `CCCCC/C=C\C/C=C\C/C=C\C/C=C\CCCC(=O)O` [arachidonic acid, Arachidonic acid], the “maximum CSF volume after administration” value in series [1] (arachidonic acid 3.2 μg/2 μl into subarachnoid space, collected every thirty minutes, rat) was 100 to 120 µL. The “CSF volume maintained for every thirty minutes” value in series [1] (arachidonic acid 3.2 μg/2 μl, during 4.0-5.0 hours post-administration) lay within 60 to 80 µL. Moreover, the “time to peak / maximum CSF volume” value in series [1] (arachidonic acid into subarachnoid space, rat) was at most 3.5 h. Turning to `CC(C)(O)c1ccccc1CC[C@@H](SCC1(CC(=O)O)CC1)c1cccc(/C=C/c2ccc3ccc(Cl)cc3n2)c1` [montelukast], the “passage of the blood-brain barrier” value in series [2] is “does not pass, or passes the blood-brain barrier at most at a very minimal level”. With `COc1cc(C(=O)NS(=O)(=O)c2ccccc2C)ccc1Cc1cn(C)c2ccc(NC(=O)OC3CCCC3)cc12` [zafirlukast], in series [2], the “passage of the blood-brain barrier” value is on record as “does not pass, or passes the blood-brain barrier at most at a very minimal level”.
